Results as given in patent publication US20260272960A1, “[…] COMPOUNDS, PREPARATION METHOD AND USE THEREOF” (HC SYNTHETIC PHARMACEUTICAL CO., LTD., priority 2022, published 2026).
Converted amounts (≈) assume the structure as drawn. Like-named read-outs stand apart in the source and are kept apart here.

Tests used:
[1] = Solubility test in water, methanol and isopropanol; format: physicochemical
Method: The solubility in water, methanol, and isopropanol of the compounds of the present disclosure and the comparative compounds were measured separately.

[2] = Accelerated stability test; format: physicochemical; details: 40° C.±2° C., relative humidity 75%+5%
Method: The compound of the present disclosure was placed at a temperature of 40° C.±2° C. and a relative humidity of 75%+5% for 6 months, and samples were taken to determine for the descriptions, related substances, and contents.

[3] = system: histamine-induced asthma in guinea pigs; assay: Antiasthmatic effect on histamine-induced asthma in guinea pigs (latency period); format: in vivo, guinea pig; details: 1 mg/kg oral gavage, sixty minutes after administration; no asthma within 8 minutes counted as 8 minutes; X ± s, n = 5
Method: The guinea pigs were placed in a polymethyl methacrylate bell jar and a histamine hydrochloride solution was sprayed ultrasonically (0.8 mg/mL) for 40 seconds. The time point at which the guinea pigs developed asthma was recorded. The time of convulsion and fall was taken as the latency period. Guinea pigs with a latency period exceeding 180 seconds were not selected. […] The guinea pigs were administered by oral gavage at a dose of 2 mL/kg·bw. Sixty minutes after the administration, the guinea pigs were placed in bell jars, and histamine hydrochloride solution was sprayed under the same conditions as in the previous selection. The latency period for the onset of asthma was recorded. […] The results were processed statistically.

[4] = system: isolated ileal smooth muscle of guinea pigs; assay: Effect on muscle tone of isolated ileal smooth muscle of guinea pigs (no histamine added); set-up: species or system guinea pig; details: 5 minutes after adding the drug, X ± s, n = 8
Method: The guinea pig was knocked unconscious with a wooden stick, and the abdomen was immediately dissected to separate the ileum about 15 cm in length. The contents of the intestinal segment were flushed with Tyrode's solution and placed in Tyrode's solution at a constant temperature of 37° C. for later use, and oxygen was supplied simultaneously. The experimental intestinal tract (1 cm in length) was cut and placed into 20 ml of Tyrode's solution at a constant temperature of 37° C. with a continuous oxygen supply. One end of the intestine was fixed on the ventilation hook and the other end was connected to the muscle tone transducer and led to the computer interface. The muscle tone value of the ileal smooth muscle was recorded with a BL system. The experiment was carried out after the intestinal segment contraction became stable. […] The operation was repeated 8 times. The antispasmodic percentage was calculated according to the following formula. [formula]

[5] = isopropanol, organic solvent or mixture, isopropanol, read-out: Solubility, Isopropanol
[6] = methanol, organic solvent or mixture, methanol, read-out: Solubility, Methanol
[7] = water, read-out: Solubility, Water

| Compound | solubility [1, 5] | solubility [1, 6] | other results |
| --- | --- | --- | --- |
| O=C1Cc2ccccc2C(=C2CCN(CCOP(=O)(O)O)CC2)c2ccsc21 [Compound III-2] |  |  | solubility ([1]; isopropanol, organic solvent or mixture, read-out: Solubility, Isopropanol): 24 mg/mL (≈ 57.2 mM) |
| O=C1Cc2ccccc2C(=C2CCN(COP(=O)([O-])[O-])CC2)c2ccsc21.[Na+].[Na+] [Compound IV-1] | 1 mg/mL | 35 mg/mL | solubility [1, 7]: 488 mg/mL; Content ([2]; Month 1): 99.7%; Content ([2]; Month 3): 99.6% |
| O=C1Cc2ccccc2C(=C2CCN(CCOP(=O)([O-])[O-])CC2)c2ccsc21.[K+].[K+] [Compound IV-2] |  |  | Content ([2]; Month 1): 99.7%; Content ([2]; Month 2): 99.7%; Content ([2]; Month 6): 99.6% |
| O=C1Cc2ccccc2C(=C2CCN(CCCOP(=O)(O)O)CC2)c2ccsc21 [Compound IV-3] |  | 38 mg/mL (≈ 87.7 mM) | solubility [1, 7]: 404 mg/mL (≈ 932 mM) |
| O=C1Cc2ccccc2C(=C2CCN(CCCCOP(=O)([O-])[O-])CC2)c2ccsc21.[Na+].[Na+] [Compound IV-4] | 1 mg/mL | 35 mg/mL | solubility [1, 7]: 476 mg/mL; Content ([2]; Month 1): 99.7%; Content ([2]; Month 3): 99.6% |
| O=C1Cc2ccccc2C(=C2CCN(CCCCCOP(=O)([O-])[O-])CC2)c2ccsc21.[Na+].[Na+] [Compound IV-5] | 1 mg/mL |  | solubility [1, 7]: 478 mg/mL |
| O=C1Cc2ccccc2C(=C2CCN(CCOCOP(=O)(O)O)CC2)c2ccsc21 [Compound IV-6] |  |  | Content ([2]; Month 3): 99.6% |
| O=C1Cc2ccccc2C(=C2CCN(CCCCOCOP(=O)([O-])[O-])CC2)c2ccsc21.[Na+].[Na+] [Compound IV-8] |  |  | Content ([2]; Month 1): 99.7%; Content ([2]; Month 2): 99.7%; Content ([2]; Month 6): 99.6% |
| O=C1Cc2ccccc2C(=C2CCN(CCCCCOCOP(=O)([O-])[O-])CC2)c2ccsc21.[Na+].[Na+] [Compound IV-9] | 2 mg/mL | 35 mg/mL | solubility [1, 7]: 473 mg/mL |
| OCCCCN1CCC(=C2c3ccc(Cl)cc3CCc3cccnc32)CC1 [Hydroxybutyl desloratadine, hydroxybutyl desloratadine, reference compound] | 28 mg/mL (≈ 73.1 mM) | 22 mg/mL (≈ 57.5 mM) |  |
| OCCN1CCC(=C2c3ccc(Cl)cc3CCc3cccnc32)CC1 [Hydroxyethyl desloratadine, hydroxyethyl desloratadine, reference compound] | 21 mg/mL (≈ 59.2 mM) | 27 mg/mL (≈ 76.1 mM) |  |
| OCCCCCCN1CCC(=C2c3ccc(Cl)cc3CCc3cccnc32)CC1 [Hydroxyhexyl desloratadine, hydroxyhexyl desloratadine, reference compound] | 32 mg/mL (≈ 77.9 mM) | 15 mg/mL (≈ 36.5 mM) |  |
| OCCCCCN1CCC(=C2c3ccc(Cl)cc3CCc3cccnc32)CC1 [Hydroxypentyl desloratadine, hydroxypentyl desloratadine, reference compound] | 29 mg/mL (≈ 73.1 mM) | 19 mg/mL (≈ 47.9 mM) |  |
| OCCCN1CCC(=C2c3ccc(Cl)cc3CCc3cccnc32)CC1 [Hydroxypropyl desloratadine, hydroxypropyl desloratadine, reference compound] | 26 mg/mL (≈ 70.5 mM) | 24 mg/mL (≈ 65.1 mM) |  |
| CN1CCC(=C2c3ccccc3CC(=O)c3sccc32)CC1 [Ketotifen, ketotifen] | 20 mg/mL (≈ 64.6 mM) | 30 mg/mL (≈ 97 mM) | Post-administration latency period [3]: 263.11 ± 54.90 s; Smooth muscle tone (g) After administration [4]: 1.30 ± 0.30 g; Antispasmodic percentage (%) ([4]; no histamine): 23.53 ± 10.10% |
| Cc1cncc(CN2CCC(=C3c4ccccc4CC(=O)c4sccc43)CC2)c1 [Rupatifen, rupatifen, reference compound] | 20 mg/mL (≈ 49.9 mM) | 30 mg/mL (≈ 74.9 mM) |  |

Now from value to compound, other results behind:

| solubility [1, 5] | solubility [1, 6] | Compound | other results |
| --- | --- | --- | --- |
| 24 mg/mL (≈ 59.2 mM) | 35 mg/mL (≈ 86.3 mM) | O=C1Cc2ccccc2C(=C2CCN(COP(=O)(O)O)CC2)c2ccsc21 [Compound III-1] |  |
|  | 35 mg/mL (≈ 80.7 mM) | O=C1Cc2ccccc2C(=C2CCN(CCCOP(=O)(O)O)CC2)c2ccsc21 [Compound III-3] |  |
| 24 mg/mL (≈ 53.6 mM) | 35 mg/mL (≈ 78.2 mM) | O=C1Cc2ccccc2C(=C2CCN(CCCCOP(=O)(O)O)CC2)c2ccsc21 [Compound III-4] |  |
| 24 mg/mL (≈ 51.8 mM) | 38 mg/mL (≈ 82 mM) | O=C1Cc2ccccc2C(=C2CCN(CCCOCOP(=O)(O)O)CC2)c2ccsc21 [Compound III-7] |  |
| 24 mg/mL (≈ 48.8 mM) | 38 mg/mL (≈ 77.3 mM) | O=C1Cc2ccccc2C(=C2CCN(CCCCCOCOP(=O)(O)O)CC2)c2ccsc21 [Compound III-9] |  |
